In US20220023316A1, “METHODS FOR THE TREATMENT OF DEPRESSION” (Praxis Precision Medicines, Inc., priority 2018, published 2022):

Tests used:
[1] = Safety and tolerability in healthy subjects (Cohorts 1-3); type: in vivo, human
Description: Blood and urine were obtained during each treatment period at designated times for PK and other analyses (see below). Standard safety assessments were measured during each treatment period.

[2] = system: severe major depressive disorder (MDD); experiment: Open-label study in patients with severe MDD, Part A efficacy (HAM-D); type: in vivo, human
Description: The study is an open-label, study comprised of two dosing periods, Part A and Part B, during which patients were treated with an oral suspension of Compound 1. Part A was an open-label assessment of two dose levels of Compound 1 (45 mg qHS Cohort 1 and 80 mg qHS Cohort, i.e., once daily administration at bedtime) administered for 7 days inpatient followed by 7 days outpatient. PRAX-114 was administered at 4 PM on Day 1 in order to collect post-dosing PK samples that could not be collected with qHS dosing.
(§1) In Part A, participants were administered daily doses of Compound 1 (45 mg Cohort and 80 mg Cohort) at 4 PM on Day 1 and qHS on all other study days for 7 days inpatient followed by 7 days outpatient (with subsequent Cohorts receiving up to 120 mg qHS). Participants checked into the clinic on Day 1. During this period the following assessments were performed: adverse event assessments, vital signs, physical examinations, blood and urine samples for safety assessments, ECGs, C-SSRS assessments, blood samples for PK, and efficacy assessments (HAM-D, MADRS, HAM-A, CGI [CGI-S and CGI-I], PSQI, and SDQ). Baseline assessments occurred on Day 1 prior to administration of study drug. On Day 8, prior to discharge, participants were supplied with sufficient Compound 1 to complete 7 days of dosing.
Patients were administered daily doses of Compound 1 for 7 days inpatient followed by 7 days outpatient.
In the 45 mg Cohort, patients were administered once daily dose of 45 mg of Compound 1 at bedtime for 7 days inpatient followed by once daily dose of 45 mg of Compound 1 at bedtime for 7 days outpatient.
In the 80 mg Cohort, patients were administered once daily dose of 80 mg of Compound 1 at bedtime for 7 days inpatient followed by once daily dose of 80 mg of Compound 1 at bedtime for 7 days outpatient.
Part A: In Part A, HAM-D, MADRS, HAM-A, CGI-S, and CGI-I values were collected in the morning of Days 1, 2, 3, 4, 5, 6, 7, 8, 15, 21 and 28. PSQI and SDQ values will be collected on Days 1, 8, 15, 21 and 28. Part B: In Part B, HAM-D, MADRS, HAM-A, CGI-S, CGI-I, PSQI and SDQ values will be collected on the days described for Part A.
HAM-D Response was defined as a reduction from baseline of >50% in total HAM-D score. HAM-D remission was defined as a total HAM-D score of <7.
Efficacy analysis: For both parts of the clinical trial, the HAM-D total score and change from baseline values will be summarized by treatment group and time point. In addition, the change from baseline in HAM-D total score will also be analyzed using paired t-tests or similar methods. The null hypothesis of this test is that the mean difference in HAM-D total score between paired observations (i.e., pre- and post-treatment) is zero. Similar analysis methods will be used for all secondary and exploratory efficacy variables.

[3] = Safety and tolerability in MDD patients, Part A; type: in vivo, human; conditions: 80 mg Cohort
Description: as §1
Adverse events (AEs) will be monitored throughout the duration of the study.

[4] = human, in vivo
Description: (§2) Healthy subjects aged 18 to 55 years were treated with an oral suspension of Compound 1 to study the safety, tolerability, pharmacokinetics and pharmacodynamics of Compound 1 in healthy subjects.
(§3) The study was a randomized, double-blind, placebo-controlled multiple escalating dose study comprised of 3 cohorts that each received an oral suspension. Each cohort consisted of two groups: one group treated with Compound 1 and another treated with placebo. In each cohort, the ratio of Compound 1-treated subjects to placebo-treated subjects was 3:1.
(§4) The Compound 1-treated subjects of Cohort 1 were treated with 15.0 mg of Compound 1 once per day (QD). The Compound 1-treated subjects of Cohort 2 were treated with 30.0 mg of Compound 1 QD. The Compound 1-treated subjects of Cohort 3 were treated with 60.0 mg of Compound 1 QD.
(§5) Patients in each cohort were treated with Compound 1 for 14 consecutive days, unless dosing was halted by the Safety Review Committee (SRC). The dosing of subjects in each of the cohorts was staggered with the decision to dose escalate based on SRC review of a minimum of 14 days of observation of safety and tolerability data and review of the available plasma PK data from the preceding cohort(s).
(§6) Compound 1 was administered under fasted conditions (no food or drink, except water, for at least 10 hours prior to dosing). Immediately after administration of Compound 1, the subject was be administered 240 mL water. No additional fluid intake was allowed until 1 hour after Compound 1 administration.
(§7) Cohort 1 subjects received a single 15.0 mg dose of a Compound 1 suspension on the morning of Days 1-14. Cohort 2 subjects received a single 30.0 mg dose of a Compound 1 suspension on the morning of Days 1-14. Cohort 3 subjects received a single 60.0 mg dose of a Compound 1 suspension on the morning of Days 1-14. For all cohorts, the last treatment was administered on the morning of Day 14.
(§8) PK parameters (e.g., Cmax, Tmax, T1/2, AUC, etc.) for healthy patients in each cohort was compared to assess the suitability of Compound 1 suspension for the treatment of MDD. Data were obtained from the blood plasma samples collected from each cohort according to the schedule provided.
(§9) Plasma samples were analyzed to determine Compound 1 concentrations using a validated assay method. Pharmacokinetic variables (including but not limited to Cmax, Tmax and AUC(0-last)), were calculated using non-compartmental analysis. PK parameters for Compound 1 were derived from the plasma concentration data using non-compartmental analysis with Phoenix™ WinNonlin® v 8.0 (Pharsight Corporation, USA).
(§10) Blood (Cohorts 1-3): For each cohort, blood samples were collected on Days 1, 2, 3, 4, 5, 6 and 14 at the following time points: Day 1 at pre-dose (0 hour), 0.25, 0.5, 0.75, 1, 1.5, 2, 2.5, 3, 4, 6, 8, 12, 16 h post-dose; Day 2 at pre-dose (24 h), Day 3 at pre-dose (48 h), Day 4 at pre-dose (72 h), Day 5 at pre-dose (96 h), Day 6 at pre-dose (120 h); Day 14 at pre-dose 0.25, 0.5, 0.75, 1, 1.5, 2, 2.5, 3, 4, 6, 8, 12, 16, 24, 36, 48, and 72 hours. Trough level blood samples were collected on Days 2, 3, 4, 5, 6 and 14, prior to the morning dose administrations.
(§11) Descriptive statistics were calculated for plasma and urine PK parameter and concentration data, and summarized by study day and time point. Arithmetic means, coefficient of variation (CV), standard deviation, median, minimum, and maximum values, and number of observations were calculated for all PK parameters and trough concentration data. Except for Tmax, the geometric mean, geometric standard deviation, and geometric CV were provided for all PK parameter and concentration data.

[5] = human, in vivo, 30 mg
Description: (§12) A Food Effect Cohort (Cohort 4) was conducted to assess the effect of food on the PK profile of a single dose of Compound 1 when administered to healthy subjects. The subjects of Cohort 4 were treated with 30 mg of Compound 1 QD.
(§13) Cohort 4 subjects received a single 30 mg dose of a Compound 1 suspension on Days 1 and 5. The Day 1 dose was administered after a minimum of 10 hour fasting. No additional fluid intake was allowed until 1 hour after drug administration. A standard meal was given at least 4 hours post-dose. The Day 5 dose was administered following a high-fat, high calorie meal. Participants remained at the clinical site for a total of 8 days to complete PK sampling after the second dose.
as §9
(§14) Urine (Cohort 4): No urine analysis was conducted in Cohort 4.

[6] = Food Effect Cohort (Cohort 4) PK, single 30 mg dose fasted vs fed; conditions: healthy subjects
Description: as §12, §13, §9, §14

[7] = Multiple escalating dose PK study of oral suspension in healthy subjects (Cohorts 1-3); conditions: for t1/2: Day 14 steady state
Description: as §2, §3, §4, §5, §6, §7, §8, §9, §10, §11

[8] = Cohorts 1-3, 15-60 mg QD for 14 days

For `COC[C@@]1(O)CC[C@@]2(C)[C@@H](CC[C@@H]3[C@@H]2CC[C@]2(C)[C@@H](C(=O)Cn4ccnc4)CC[C@@H]32)C1` [Compound 1, 3α-Hydroxy-3β-methoxymethyl-21-(1′-imidazolyl)-5α-pregnan-20-one], which “Serious Adverse Events” value [1, 8] is on record?
Its value is “no Serious Adverse Events”.

What about the “clinically relevant vital sign, ECG, or lab abnormalities” value [1, 8] of the same molecule?
Its value is “no clinically relevant vital sign, ECG, or lab abnormalities”.

And the elevated mood ([1]; doses of 30 mg and 60 mg QD)?
The elevated mood was “several subjects experienced elevated mood”.

And the “patients meeting HAM-D Response or Remission criterion” value ([2]; 45 mg Cohort (45 mg qHS), Day 7, 13 patients)?
The value was 11 of the 13.

What about the “patients meeting HAM-D Response or Remission criteria” value ([2]; 45 mg Cohort (45 mg qHS), Day 15, 13 patients) of the same molecule?
Its value is 8 of the 13.

And the “least squares Mean Change from Baseline in HAM-D score” value ([2]; 80 mg Cohort (80 mg qHS), Day 7)?
The value was −20.0.

And the “least squares Mean Change from Baseline in HAM-D score” value ([2]; 80 mg Cohort (80 mg qHS), Day 15)?
The value was −16.0.

And the “patients meeting HAM-D Response or Remission criteria” value ([2]; 80 mg Cohort (80 mg qHS), Day 15, 7 patients)?
Its value is 6 of the 7.

What about the “Efficacy (reduction Mean Change from Baseline in HAM-D score)” value ([2]; as monotherapy and in combination with another antidepressant) of the same molecule?
The value was “observed”.

And the “symptoms of MDD” value ([2]; daily dose of 45 mg or 80 mg, oral suspension, MDD patients)?
Its value is “reduced symptoms of moderate to severe MDD”.

What about the “Efficacy (reduction Mean Change from Baseline in HAM-D score)” value ([2]; patients undergoing first course of antidepressant treatment and patients that failed previous courses) of the same molecule?
The value was “observed”.

What about the “Adverse Event profile compared to the 45 mg Cohort” value [3] of the same molecule?
The value was “no change in Adverse Event profile”.

What about the “tolerability of the dose” value [3] of the same molecule?
The value was “well tolerated”.

What about the “increase in Cavg, AUCss and AUCinf with dose” value [4] of the same molecule?
The value was “proportional increase”.

What about the “increase in Cmax and AUC parameters at steady state with dose” value [4] of the same molecule?
Its value is “approximate proportional increase”.

And the “Cmax higher under fasting conditions compared to fed” value [5]?
The value was 1.5-1.6 times.

What about the “Tmax under fasting compared to fed conditions” value [5] of the same molecule?
The value was “tendency for a shorter Tmax”.

What about the AUCinf ([5]; po) of the same molecule?
The AUCinf was 602.3 (304.84) h · ng/mL.

And the t1/2 ([6]; Fed (Day 1) n =10 as head prints, single 30 mg oral suspension after high-fat, high calorie meal, Mean (SD))?
The t1/2 was 11.26 (0.8641) h.

What about the “t1/2 fasted versus fed” value ([6]; single 30 mg dose) of the same molecule?
The value was “similar”.

And the t1/2 ([7]; Cohort 1, 15.0 mg QD oral suspension, Geo Mean)?
Its t1/2 is 14.613 h.

And the t1/2 ([7]; Cohort 1, 15.0 mg QD oral suspension, Mean)?
Its t1/2 is 14.77 ± 2.26 h.

What about the t1/2 ([7]; Cohort 1, 15.0 mg QD oral suspension, Median) of the same molecule?
Its t1/2 is 15.26 h.

What about the t1/2 ([7]; Cohort 2, 30.0 mg QD oral suspension, Geo Mean) of the same molecule?
Its t1/2 is 12.647 h.

And the t1/2 ([7]; Cohort 2, 30.0 mg QD oral suspension, Mean)?
Its t1/2 is 12.70 ± 1.23 h.

And the t1/2 ([7]; Cohort 2, 30.0 mg QD oral suspension, Median)?
The t1/2 was 12.90 h.

And the Cmax ([7]; Cohort 2, 30.0 mg QD oral suspension, fasted, Day 1, Geometric Mean)?
The Cmax was 120.018 ng/mL.

And the “accumulation factor of the dosing interval (ratio of AUCDay14/AUCDay1)” value ([7]; Cohort 3, 60.0 mg QD)?
The value was 0.89.

And the t1/2 ([7]; Cohort 3, 60.0 mg QD oral suspension, Geo Mean)?
Its t1/2 is 12.164 h.

And the t1/2 ([7]; Cohort 3, 60.0 mg QD oral suspension, Mean)?
Its t1/2 is 12.23 ± 1.32 h.

And the t1/2 ([7]; Cohort 3, 60.0 mg QD oral suspension, Median)?
Its t1/2 is 12.42 h.
